We go through one substance from patent US20100215653A1, “METHODS OF TREATING NEOPLASTIC, AUTOIMMUNE AND INFLAMMATORY DISEASES” (Seattle Genetics, Inc., priority 2006, published 2010).

Entries after “also recorded” stand apart in the source; their conditions may differ. Where two headings read alike, the source gives them in different places.

Series [1] concerns relapsed and refractory acute myeloid leukemia (AML). Particulars: low dose, infrequent administration; cited from earlier work.
The subject of series [2] is primary human CD14+ monocytes. Put plainly: Cell viability (CelltiterGlo) of primary human CD14+ monocytes. Type of series: cell-based. Particulars: 48 hours of exposure to increasing concentrations (FIG. 13). (ATP-based viability assays read luminescence as a measure of living cells.)
Protocol: Macrophages were harvested, counted, and cultured in 96-well plates at 35,000 cells per well. G-CSF-mobilized CD14^+ monocytes (Cambrex) were cultured in 96-well plates at 100,000 cells per well (adherent cells) in sterile polypropylene dishes (non-adherent cells).
Series [3] has as its target T1, CD33 (Homo sapiens, UniProt P20138). The series is described as follows: Apparent Kd by saturation binding using flow cytometry. Set-up: endogenous in cells; host or cells: HL60, KG-1, HEL9217, TF1-α. As to the method: As a preliminary step, the AML cell lines HL60, KG-1, HEL9217 and TF1-α were assessed for multi-drug resistance (MDR) status and CD33 copy number. MDR status was determined by flow cytometry assessment of Rhodamine (Rh123) efflux at 37° C. […] CD33 copy number was determined by qFACs (DAKO QifiKit) and apparent Kd values by saturation binding measurements using flow cytometry.

A further series has as its system HL-60 cells. The series is described as follows: HL-60 disseminated AML model in mice. Type of series: in vivo. As to the method:
Mice were implanted with an AML cell line, HL-60, as follows: 5 million HL-60 cells were injected intravenously. The mice were treated with lintuzumab (10 mg/kg, q4dx4, ip), cytarabine (1 mg/kg, 5 mg/kg or 25 mg/kg, q1dx10, ip; or 50 mg/kg or 100 mg/kg, q2dx5, ip) or lintuzumab with cytarabine (dosed as described previously). Treatment began on day one. Referring to FIG. 22, the control mice or mice treated with placebo (0.9% saline) were removed from the study by day 80, due to tumor progression.
To confirm the data of the in vitro study, mice were implanted with an AML cell line, HL-60, as follows: 5 million HL-60 cells were injected intravenously. […] Treatment began on day one. Referring to FIG. 24, the control mice were removed from the study by about day 60 due to tumor progression. Mice treated with lenalidomide were removed from study by about day 90 for similar reasons.
The MDR-negative HL60 cell line and the MDR-positive HEL9217 and TF1-α cell lines were used. […] Disease symptoms typically developed between about 35 and about 80 days, and included hind limb paralysis, scruffy coat, weight loss, palpable tumors, and/or tumor masses in bone, peritoneal cavity, or soft tissues. Human CD33+ tumor cells were detected in the blood, bone marrow, and lymph nodes of the majority of the mice by flow cytometry (FIG. 25). Solid tumors associated with bone or soft tissues were found in 20 to 60% of the mice.

For series [4], the system named is primary human macrophages. The series is described as follows: Cytokine, chemokine and growth factor production by primary human macrophages. The series is classed as cell-based. The procedure: Primary human macrophages were generated from long-term cultures of freshly isolated human peripheral blood mononuclear cells (PBMCs; AllCells, Emeryville, Calif. or LifeBlood, Memphis, Tenn.). PBMCs were cultured in tissue culture flasks in RPMI 1640 medium containing glutamine (Invitrogen, Grand Island, N.Y.), 10% heat-inactivated FBS, and antibiotics for 3 to 4 hours. Non-adherent cells were removed by washing with PBS and the adherent cells were cultured in OptiMem-I medium (Invitrogen) containing 1% heat-inactivated FBS for 1 to 2 hours. The cells were washed with PBS and cultured for 10 to 14 days in X-VIVO-15 medium (Cambrex Bio Science, Walkersville, Md.) containing 500 U/ml GM-CSF (Peprotech, Rocky Hill, N.J.).
Tissue culture media was harvested 18 h later for cytokine analyses by ELISA or Searchlight (Pierce Endogen, Rockville, Ill.).

In a further series the test system is AML tumor cells. The series is described as follows: ADCP, phagocytosis by monocyte-derived macrophages (flow cytometry). The series is classed as cell-based, human. Conditions: MDR-positive and MDR-negative AML cells (FIG. 27B). The procedure: Target AML tumor cells (KG-1 HEL9217, and TF1α) were labeled with Na^51CrO4 and mixed with enriched CD16^+ effector (NK) cells, prepared using PBMCs from normal donors. The effector to target cell ratio was 10:1. […] Macrophages were labeled with CD11b−FITC or CD14-FITC antibody. Flow cytometric analyses of dual labeled (PKH67+CD11b+ or PKH67+CD14+) cells was used to determine specific uptake (phagocytosis). […] Media were collected 18 h later and analyzed by ELISA for IL-8 or MCP-1.

Series [5] concerns the target T1, CD33. Put plainly: CD33 tyrosine phosphorylation (CD33 immunoprecipitation, anti-phosphotyrosine Western blot). The series is classed as cell-based. Further details: endogenous in cells; host or cells: HL-60, U937; primary human CD14+ monocytes and PBMC-derived macrophages. The procedure:
CD33-positive cell lines were treated with anti-CD33 antibodies (lintuzumab and certain commercially available antibodies). Cell extracts were prepared and CD33 was immunoprecipitated using an anti-CD33 antibody (MY9 clone; Beckman Coulter, Calif.). Western blotting was performed with an anti-phosphotyrosine antibody (4G10; Upstate Biotechnologies, Inc., Lake Placid, N.Y.).
Deglycosylation was confirmed by CE-SDS. […] Cell lysates were prepared and CD33 immunoprecipitated using an anti-CD33 rabbit polyclonal antibody (Santa Cruz Biotechnology, Santa Cruz, Calif.) prior to SDS PAGE gel electrophoresis. Western blot analyses of these samples were performed using the 4G10 phosphotyrosine antibody (Upstate Biotechnology, Temucula, Calif.), anti-CD33 antibody (NovoCastra, Norwell, Mass.), and anti-SHP-1 antibody (Calbiochem, San Diego, Calif.). Control lysate for SHP-1 was prepared from a B cell lymphoma cell line.
A general note: In western blotting, separated proteins are transferred to a membrane and probed.

T1 sequence (P20138 18-364): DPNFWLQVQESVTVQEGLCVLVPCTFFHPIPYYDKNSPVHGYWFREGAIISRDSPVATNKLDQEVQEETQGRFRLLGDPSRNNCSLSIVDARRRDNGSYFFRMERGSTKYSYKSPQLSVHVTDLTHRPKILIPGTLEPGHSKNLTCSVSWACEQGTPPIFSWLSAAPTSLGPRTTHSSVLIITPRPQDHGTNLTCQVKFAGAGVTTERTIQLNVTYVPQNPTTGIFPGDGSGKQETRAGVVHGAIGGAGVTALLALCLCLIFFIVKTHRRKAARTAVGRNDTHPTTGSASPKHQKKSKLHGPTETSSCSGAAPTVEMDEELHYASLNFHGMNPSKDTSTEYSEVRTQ

Consider “SGN-33: anti-CD33 antibody, a humanized version of mouse monoclonal antibody M195”, for which the “blast cells in patients” value in series [1] is “induced significant reductions in blast cells”. The “cell viability of monocytes” value in series [2] is “not due to an adverse effect; also recorded: does not affect the viability”. The Kd in the series with CD33 [3] (read-out: Kd (pM) for SGN-33, HEL9217 cells (MDR positive)) was 144 ± 12 pM; in the series with CD33 [3] (read-out: Kd (pM) for SGN-33, HL60 cells (MDR negative)) it was 123 ± 16 pM; in the series with CD33 [3] (read-out: Kd (pM) for SGN-33, KG-1 cells (MDR negative)), 70 ± 20 pM; with CD33 [3] (read-out: Kd (pM) for SGN-33, TF1-α cells (MDR positive)), 99 ± 22 pM. Besides, the survival in the series on HL-60 cells (HL60 model, SCID mice, q4dx4, p<0.005 (FIG. 26)) was more than 100 days. In addition, the increase of survival in the series with HL-60 cells (MDR-negative HL60 model, 3 to 30 mg/kg, p<0.0001) is more than 100 days. The survival rate in the series with HL-60 cells (SGN-33 30 mg/kg q4dx5 ip (FIG. 24)) is on record as approximately 85%; in the series on HL-60 cells (SGN-33 3 or 10 mg/kg q4dx5 ip (FIG. 24)), approximately 50%. Also, the “production of IL-6, TNF-α, RANTES and MCP-1” value in series [4] (macrophages pre-incubated 3 hours with SGN-33, response to IFN-γ or conditioned media from RPMI-8226 and Karpus-620 cells, 24 h) is “reduced production of IL-6, TNF-α, RANTES, and MCP-1”. The “levels of TNF-α” value in series [4] (primary human macrophages, various doses 1 hr before IFN-γ, 18 h, p<0.05 (FIG. 20)) is on record as “significantly reduced levels of TNF-α in a dose-dependent manner”. Moreover, the “ADCP activity (phagocytosis)” value in the series on AML tumor cells is “antibody-dependent cell phagocytosis of MDR-positive and MDR-negative AML cells; also recorded: mediate phagocytosis of AML tumor cells”. Further, in the series with CD33 [5] (HL-60 AML cells (FIG. 16)), the “phosphorylation of CD33” value is “induced phosphorylation of CD33”. For the same substance, the CD33 tyrosine phosphorylation result with CD33 [5] (HL-60 and U937 cells, soluble or cross-linked antibody (FIG. 2)) is on record as “stimulated CD33 tyrosine phosphorylation”; in the series with CD33 [5] (HL-60 cells, soluble and cross-linked antibody (FIG. 1)) it was “stimulated CD33 tyrosine phosphorylation”.
